The results in this text go back to US5482957A, “Azole derivatives, process for their preparation and their use” (Hoechst Aktiengesellschaft, priority 1991, dated 1996).

Broadly, the pIC50 is the IC50 on a negative log10 scale, so that one unit is a factor of ten.

pIC50: −log10 of the molar value.

The target in the assay is angiotensin II receptor. In words: Displacement of 125I- or 3H-angiotensin II from receptor preparations from various organs (liver, lung, adrenal gland, brain etc.). The format is binding. The note with it: Table 1; radioligand displacement, 25° C., 90 min, pH 7.4. As for the experimental part:
Alternatively, the affinity of the compounds of the formula I for the angiotensin II receptor can be determined by measurement of the ^125 I-angiotensin II or ^3 H-angiotensin II displacement of receptor preparations from various organs (liver, lung, adrenal gland, brain etc.).
To this end, the prepared membranes are suspended in an incubation buffer ([…], pH 7.4, containing 135 mM NaCl, 10 mM KCl, 10 mM MgCl2, 5 mM glucose, 0.2% bovine serum albumin and the protease inhibitors PMSF, 0.3 mM, and bacitracin, 0.1 mM) and incubated at 25° C. for 90 min together with the radioactively labeled angiotensin II and various concentrations of the compounds to be tested. Bound and free radioligand are then separated by filtration through micro glass fiber filters (GF51, Schleicher and Schull) in a cell collector (SKATRON).
The degree of displacement of the radioligand from the receptor by the test compounds is determined by measurement of the receptor-bound radioactivity on the filters by means of a beta- or gamma-spectrometer. The amount of the displacement of the radioligand from the receptor by the test compounds is indicated by the IC50, i.e. the concentration of the inhibitor which displaces 50% of the bound radioligand from the receptor. The calculation of the IC50 values is carried out by means of PC software (LIGAND, G. A. McPherson 1985, Elsevier BIOSOFT, 68 Hills Road, Cambridge, CB2 1LA, UK.).
(In general: In a radioligand displacement assay an active substance lowers the binding of a labelled ligand.)
`CCCCc1nc(Cl)c(C=O)n1Cc1ccc(-c2ccccc2S(=O)(=O)NC(=O)Nc2ccccc2)cc1` [Example 1, 1-[(2'-phenylaminocarbonylaminosulfonylbiphenyl-4-yl)methyl]-2-n-butyl-4-chloroimidazole-5-carboxaldehyde]: the pIC50 was 5.30.

For `CCCCc1nc(Cl)c(C=O)n1Cc1ccc(-c2ccccc2S(=O)(=O)NC(=O)NCCC)cc1` [Example 2, 1-[(2'-n-propylaminocarbonylaminosulfonylbiphenyl-4-yl)methyl]-2-n-butyl-4-chloroimidazole-5-carboxaldehyde], the pIC50 was 5.10. The molecule `CCCCc1nc(Cl)c(C=O)n1Cc1ccc(-c2cccc(S(=O)(=O)NC(=O)Nc3ncccn3)c2)cc1` [Example 4] gave a pIC50 of 5.96. Take `CCCCc1nc(Cl)c(C=O)n1Cc1ccc(-c2cccc(S(=O)(=O)NC(=O)Nc3nnn[nH]3)c2)cc1` [Example 5]: the pIC50 was 4.80.

`CCCCc1nc(Cl)c(C=O)n1Cc1ccc(-c2ccccc2S(=O)(=O)NC(=O)Nc2ccc([N+](=O)[O-])cc2)cc1` [Example 22] showed a pIC50 of 5.70.

As for `CCCCc1nc(Cl)c(C=O)n1Cc1ccc(-c2ccccc2S(=O)(=O)NC(=O)Nc2ccccc2F)cc1` [Example 24], the pIC50 is 6.10. Against the preceding molecule, the pIC50 is 0.40 log units higher. In turn, `CCCCc1nc(Cl)c(C=O)n1Cc1ccc(-c2ccccc2S(=O)(=O)NC(=O)Nc2ccc(F)cc2)cc1` [Example 25] gave a pIC50 of 5.85. In turn, `CCCCc1nc(Cl)c(C=O)n1Cc1ccc(-c2ccccc2S(=O)(=O)NC(=O)NCCc2ccccn2)cc1` [Example 29] had a pIC50 of 8.96.

Turning to `CCCCc1nc(Cl)c(C=O)n1Cc1ccc(-c2ccccc2S(=O)(=O)NC(=O)NCCN2CCCCC2)cc1` [Example 30], the pIC50 was 5.69. In turn, `CCCCc1nc(Cl)c(C=O)n1Cc1ccc(-c2ccccc2S(=O)(=O)NC(=O)NC2CN3CCC2CC3)cc1` (centres unmarked) [Example 31] had a pIC50 of 6.82.

Regarding `CCCCc1nc(Cl)c(C=O)n1Cc1ccc(-c2ccccc2S(=O)(=O)NC(=O)Nc2nc(C)cs2)cc1` [Example 32], the pIC50 is 8.46.

Consider `CCCCc1nc(Cl)c(C=O)n1Cc1ccc(-c2ccccc2S(=O)(=O)NC(=O)Nc2ccccc2OC)cc1` [Example 33], for which the pIC50 is 7.47. `CCCCc1nc(Cl)c(C=O)n1Cc1ccc(-c2ccccc2S(=O)(=O)NC(=O)NCc2ccc(OC)cc2)cc1` [Example 34]: the negative logarithm of the IC50 (pIC50) was 9.00. Compared with the last molecule, the pIC50 is 1.53 log units higher. In turn, `CCCCc1nc(Cl)c(C=O)n1Cc1ccc(-c2ccccc2S(=O)(=O)NC(=O)Nc2ccc(C)cc2)cc1` [Example 35] showed a pIC50 of 7.30.

The molecule `CCCCc1nc(Cl)c(C=O)n1Cc1ccc(-c2ccccc2S(=O)(=O)NC(=O)Nc2ccccc2C)cc1` [Example 36] had a pIC50 of 7.80. Regarding `CCCCc1nc(Cl)c(C=O)n1Cc1ccc(-c2ccccc2S(=O)(=O)NC(=O)NCCc2ccccc2)cc1` [Example 37], the negative logarithm of the IC50 (pIC50) is 8.96. On to `C=CCNC(=O)NS(=O)(=O)c1ccccc1-c1ccc(Cn2c(CCCC)nc(Cl)c2C=O)cc1` [Example 55, 1-[(2'-allylaminocarbonylaminosulfonylbiphenyl-4-yl)methyl]-2-n-butyl-4-chloroimidazole-5-carboxaldehyde], for which the pIC50 is 8.06. This pIC50 lies 0.90 log units lower than the previous one. To `C=CCNC(=O)NS(=O)(=O)c1ccccc1-c1ccc(Cn2c(CCCC)nc(SC)c2C(=O)O)cc1` [Example 56, 1-[(2'-allylaminocarbonylaminosulfonylbiphenyl-4-yl)methyl]-2-n-butyl-4-methylthioimidazole-5-carboxylic acid] belongs 8.34. `C=CCNC(=O)NS(=O)(=O)c1ccccc1-c1ccc(Cn2c(CCCC)nc(SC)c2C(=O)OCC)cc1` [Example 58] had a pIC50 of 8.52. For `CCCCc1nc(SC)c(C(=O)O)n1Cc1ccc(-c2ccccc2S(=O)(=O)NC(=O)NC2CCCCC2)cc1` [Example 59], the pIC50 was 8.89. On to `CCCCc1nc(SC)c(C(=O)O)n1Cc1ccc(-c2ccccc2S(=O)(=O)NC(=O)NCC2CCCCC2)cc1` [Example 60], for which the negative logarithm of the IC50 (pIC50) was 8.66. Molecule `C=CCN(CC=C)C(=O)NS(=O)(=O)c1ccccc1-c1ccc(Cn2c(CCCC)nc(SC)c2C(=O)O)cc1` [Example 61] had a negative logarithm of the IC50 (pIC50) of 8.96. In turn, `CCCCc1nc(SC)c(C(=O)O)n1Cc1ccc(-c2ccccc2S(=O)(=O)NC(=O)NCCC2=CCCCC2)cc1` [Example 62] showed a negative-log IC50 (pIC50) of 8.44. As for `C#CCNC(=O)NS(=O)(=O)c1ccccc1-c1ccc(Cn2c(CCCC)nc(SC)c2C(=O)O)cc1` [Example 64], the figure is 9.30; as for `CCCCc1nc(SC)c(C(=O)OCC)n1Cc1ccc(-c2ccccc2S(=O)(=O)NC(=O)NCCc2ccccn2)cc1` [Example 65], 8.74; as for `CCCCc1nc(SC)c(C(=O)OCC)n1Cc1ccc(-c2ccccc2S(=O)(=O)NC(=O)NCCc2ccccc2)cc1` [Example 66], 8.16. `CCCCc1nc(SC)c(C(=O)O)n1Cc1ccc(-c2ccccc2S(=O)(=O)NC(=O)NCCc2ccccc2)cc1` [Example 67]: the pIC50 was 9.04. Compared with the last molecule, the pIC50 is 0.88 log units higher. The molecule `CCCCc1nc(SC)c(C(=O)OCC)n1Cc1ccc(-c2ccccc2S(=O)(=O)NC(=O)N[C@H](C(=O)OC)C(C)CC)cc1` (some centres unmarked) [Example 68] had a pIC50 of 7.92.

As for `CCCCc1nc(SC)c(C(=O)OCC)n1Cc1ccc(-c2ccccc2S(=O)(=O)NC(=O)N[C@H](C(=O)OC)C(C)C)cc1` [Example 69], the negative-log IC50 (pIC50) was 8.49. This pIC50 is 0.57 log units higher than that of the molecule before. In the case of `CCCCc1nc(SC)c(C(=O)OCC)n1Cc1ccc(-c2ccccc2S(=O)(=O)NC(=O)NCC(=O)OC)cc1` [Example 71], the pIC50 was 8.66. Consider `CCCCc1nc(SC)c(C(=O)OCC)n1Cc1ccc(-c2ccccc2S(=O)(=O)NC(=O)NCc2ccccc2)cc1` [Example 73], for which the pIC50 was 8.60. The pIC50 values of the last two molecules are within 0.2 log units of each other. Molecule `CCCCc1nc(SC)c(C(=O)OCC)n1Cc1ccc(-c2ccccc2S(=O)(=O)NC(=O)NCCCc2ccccc2)cc1` [Example 76] gave a pIC50 of 8.02.

As to `CCCCc1nc(SC)c(C(=O)O)n1Cc1ccc(-c2ccccc2S(=O)(=O)NC(=O)NCCc2cccc(C(F)(F)F)c2)cc1` [Example 79], the pIC50 is 8.24.

As for `CCCCc1nc(SC)c(C(=O)O)n1Cc1ccc(-c2ccccc2S(=O)(=O)NC(=O)NCc2ccccc2)cc1` [Example 80], the pIC50 was 9.16. In turn, `CCCCc1nc(SC)c(C(=O)O)n1Cc1ccc(-c2ccccc2S(=O)(=O)NC(=O)NCCCc2ccccc2)cc1` [Example 81] gave a pIC50 of 9.10. As to `CCCCc1nc(SC)c(C(=O)O)n1Cc1ccc(-c2ccccc2S(=O)(=O)NC(=O)NCc2ccccc2OC)cc1` [Example 83], the pIC50 is 9.02. To `CCCCc1nc(SC)c(C(=O)OCC)n1Cc1ccc(-c2ccccc2S(=O)(=O)NC(=O)NCc2ccccc2OC)cc1` [Example 84] belongs 8.37. `CCCCc1nc(SC)c(C(=O)OCC)n1Cc1ccc(-c2ccccc2S(=O)(=O)NC(=O)NCc2cccc(OC)c2)cc1` [Example 85]: the pIC50 was 8.41.

`CCCCc1nc(SC)c(C(=O)O)n1Cc1ccc(-c2ccccc2S(=O)(=O)NC(=O)NCc2ccc(OC)c(OC)c2)cc1` [Example 89] gave a pIC50 of 8.96. In turn, `CCCCc1nc(SC)c(C(=O)O)n1Cc1ccc(-c2ccccc2S(=O)(=O)NC(=O)NCc2ccc(OC)cc2)cc1` [Example 90] gave a pIC50 of 9.16. To `CCCCc1nc(SC)c(C(=O)OCC)n1Cc1ccc(-c2ccccc2S(=O)(=O)NC(=O)NCc2ccc(OC)c(OC)c2)cc1` [Example 92] belongs 6.55; to `CCCCc1nc(SC)c(C(=O)OCC)n1Cc1ccc(-c2ccccc2S(=O)(=O)NC(=O)NC(C)c2ccccc2)cc1` (centres unmarked) [Example 95], 8.74; to `CCCCc1nc(SC)c(C(=O)O)n1Cc1ccc(-c2ccccc2S(=O)(=O)NC(=O)N[C@@H](Cc2ccccc2)C(=O)O)cc1` [Example 98], 8.85.

On to `CCCCc1nc(SC)c(C(=O)OCC)n1Cc1ccc(-c2ccccc2S(=O)(=O)NC(=O)Nc2ccccc2)cc1` [Example 99], for which the negative logarithm of the IC50 (pIC50) is 7.58. Compared with the last molecule, the pIC50 is 1.27 log units lower. `CCCCc1nc(SC)c(C(=O)OCC)n1Cc1ccc(-c2ccccc2S(=O)(=O)NC(=O)Nc2ccc(F)cc2)cc1` [Example 100] gave a pIC50 of 7.16.

For the molecule `CCCCc1nc(SC)c(C(=O)O)n1Cc1ccc(-c2ccccc2S(=O)(=O)NC(=O)Nc2ccc(F)cc2)cc1` [Example 101], the pIC50 was 8.62. As to `CCCCc1nc(SC)c(C(=O)O)n1Cc1ccc(-c2ccccc2S(=O)(=O)NC(=O)Nc2ccccc2)cc1` [Example 102], the pIC50 was 8.64. Regarding `CCCCc1nc(SC)c(C(=O)OCC)n1Cc1ccc(-c2ccccc2S(=O)(=O)NC(=O)NCCC)cc1` [Example 105], the pIC50 was 8.52. The pIC50 values of the last two molecules are within 0.2 log units of each other. `CCCCc1nc(SC)c(C(=O)O)n1Cc1ccc(-c2ccccc2S(=O)(=O)NC(=O)NCCN2CCOCC2)cc1` [Example 107] gave a pIC50 of 8.60. `CCCCc1nc(SC)c(C(=O)O)n1Cc1ccc(-c2ccccc2S(=O)(=O)NC(=O)NCCC2CCCN2C)cc1` (centres unmarked) [Example 108] gave a pIC50 of 9.02. Against the preceding molecule, the pIC50 is 0.42 log units higher. For `CCCCc1nc(SC)c(C(=O)O)n1Cc1ccc(-c2ccccc2S(=O)(=O)NC(=O)NCC2CC2)cc1` [Example 109], the pIC50 is 9.22. This pIC50 is 0.20 log units higher than that of the molecule before. In turn, `CCCCc1nc(SC)c(C(=O)OCC)n1Cc1ccc(-c2ccccc2S(=O)(=O)NC(=O)NCC2CC2)cc1` [Example 110] showed a pIC50 of 9.30.

The molecule `CCCCc1nc(SC)c(C(=O)O)n1Cc1ccc(-c2ccccc2S(=O)(=O)NC(=O)NCCCN2CCCCC2C)cc1` (centres unmarked) [Example 111] showed a pIC50 of 8.54.
